Test results taken from US8889704B2 (Array BioPharma Inc., priority 2011, dated 2014).
Counter-ions that a name gives are not always drawn.

Assays:
Format in all cases: biochemical
[1] = biological target: T1, GST-tagged recombinant full-length human Pim-2 (Homo sapiens, UniProt Q9P1W9); test: PIM-2 Assay (as Example A); details: averaged IC50; 4 μM ATP, 1.0 μM PIM2tide, 1.5 nM Pim-2
T1 construct: GST-tagged recombinant full-length human Pim-2; GST
Protocol: (§1) The assay for the determination of PIM-1 activity is based on the incorporation of [^33P]PO4 from [γ-^33P]ATP into PIM2tide substrate and capture of the radiolabeled peptide onto a Whatman P81 (phosphocellulose) filter plate. The amount of radiolabeled product is then measured by liquid scintillation counting. The final buffer conditions were as follows: 20 mM K^+MOPS, pH 7.4, 10 mM MgCl2, 0.005% Tween-20, 1 mM DTT. Assay mixtures contained 35 μM [γ-^33P]ATP (20 μCi/mL), 7.5 μM PIM2tide and 0.25 nM PIM-1 in a total volume of 50 μL. Incubations were carried out for 60 min at 22° C. and quenched with 75 μL of 200 mM H3PO4, filtered through a Whatman P81 plate and washed (1×200 μL and 5×100 μL) with 200 mM H3PO4. Fifty μL of liquid scintillation cocktail were then added per well, and the plate was counted for 30 s/well using a TopCount NXT.
(§2) Compounds were prepared at 50× the final concentration in DMSO by conducting 3-fold serial dilutions from a 500-μM intermediate dilution to give a 10-point dosing curve having a high dose of 10 μM. One-μL aliquots of these were then transferred to the assay mixtures above to give a final concentration of DMSO of 2%. A standard or reference compound was typically included on each assay plate to validate that plate. For each plate, percent of control (POC) values were calculated for each well. IC50 values were estimated from the POC values using a standard 4-parameter logistic model. The IC50 is defined as the concentration of inhibitor at which the POC equals 50 for the fitted curve.
Assay was performed as described in Example A, using 4 μM [γ-^33P]ATP (20 μCi/mL), 1.0 μM PIM2tide and 1.5 nM GST-tagged recombinant full-length human Pim-2 in place of PIM-1.

recombinant rat PIM-3 = recombinant rat PIM-3 (Rattus norvegicus, UniProt O70444); test: PIM-3 Assay (as Example A); details: averaged IC50; 30 μM ATP, 3.75 μM PIM2tide, 0.5 nM PIM-3
Protocol: as §1, §2
Assay was performed as described in Example A, using 30 μM [γ-^33P]ATP (20 μCi/mL), 3.75 μM PIM2tide and 0.5 nM recombinant rat PIM-3 in place of PIM-1.

PIM-1 = PIM-1 (Homo sapiens, UniProt P11309); test: Enzyme PIM-1 Assay ([33P]ATP incorporation into PIM2tide, filter plate); details: averaged IC50; 35 μM ATP, 7.5 μM PIM2tide, 0.25 nM PIM-1, 60 min at 22° C.
Protocol: as §1, §2

PIM-1, sequence (P11309 whole entry, species assumed): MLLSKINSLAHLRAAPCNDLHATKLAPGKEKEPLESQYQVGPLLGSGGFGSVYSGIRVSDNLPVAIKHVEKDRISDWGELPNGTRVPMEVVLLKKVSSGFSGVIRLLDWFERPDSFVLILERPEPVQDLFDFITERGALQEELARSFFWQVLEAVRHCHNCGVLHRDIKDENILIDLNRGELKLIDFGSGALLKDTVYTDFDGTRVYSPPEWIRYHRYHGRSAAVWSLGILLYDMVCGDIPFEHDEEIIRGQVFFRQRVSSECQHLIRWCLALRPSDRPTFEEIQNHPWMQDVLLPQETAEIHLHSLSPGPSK
T1 sequence (Q9P1W9 whole entry): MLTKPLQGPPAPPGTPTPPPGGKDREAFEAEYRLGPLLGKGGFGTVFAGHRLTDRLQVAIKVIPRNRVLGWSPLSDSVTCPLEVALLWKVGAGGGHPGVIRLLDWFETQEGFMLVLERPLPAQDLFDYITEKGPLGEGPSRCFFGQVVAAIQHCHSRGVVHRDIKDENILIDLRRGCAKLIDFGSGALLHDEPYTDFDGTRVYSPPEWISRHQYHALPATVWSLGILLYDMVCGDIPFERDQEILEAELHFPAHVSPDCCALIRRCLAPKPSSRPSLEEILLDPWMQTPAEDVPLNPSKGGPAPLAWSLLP

Structure (SMILES)	IC50 [1] [nM]	IC50 (recombinant rat PIM-3) [nM]	IC50 (PIM-1) [nM]
N[C@H]1CCN(C(c2ccc3nnc(-c4ccc5ccc(C(F)(F)F)cc5n4)n3c2)C(F)(F)F)C1 (stereo partly drawn) [Example 29, (3S)-1-(2,2,2-trifluoro-1-(3-(7-(trifluoromethyl)quinolin-2-yl)-[1,2,4]triazolo[4,3-a]pyridin-6-yl)ethyl)pyrrolidin-3-amine dihydrochloride]	> 1000	47	5.12
CC(C)NC(=O)c1ccc2ccc(-c3nnc4ccc(C(N5CC[C@H](N)C5)C(F)(F)F)cn34)nc2c1 (stereo partly drawn) [Example 30, 2-(6-(1-((S)-3-aminopyrrolidin-1-yl)-2,2,2-trifluoroethyl)-[1,2,4]triazolo[4,3-a]pyridin-3-yl)-N-isopropylquinoline-7-carboxamide dihydrochloride]	63	0.9	0.32
COC[C@@H](C)Oc1cccc2ccc(-c3nnc4ccc(C(C)N5CC[C@H](N)C5)cn34)nc12 (stereo partly drawn) [Example 33, (3S)-1-(1-(3-(8-((R)-1-methoxypropan-2-yloxy)quinolin-2-yl)-[1,2,4]triazolo[4,3-a]pyridin-6-yl)ethyl)pyrrolidin-3-amine trihydrochloride]	759	5.9	1.41
CC(C)NC(=O)c1ccc2ccc(-c3nnc4ccc([C@@H](N5CC[C@H](N)C5)C(F)(F)F)cn34)nc2c1 [Example 34, 2-(6-((R)-1-((S)-3-aminopyrrolidin-1-yl)-2,2,2-trifluoroethyl)-[1,2,4]triazolo[4,3-a]pyridin-3-yl)-N-isopropylquinoline-7-carboxamide dihydrochloride]	41	0.3	0.2
CN(C)C(=O)c1ccc2ccc(-c3nnc4ccc([C@@H](N5CC[C@H](N)C5)C(F)(F)F)cn34)nc2c1 [Example 35, 2-(6-((R)-1-((S)-3-aminopyrrolidin-1-yl)-2,2,2-trifluoroethyl)-[1,2,4]triazolo[4,3-a]pyridin-3-yl)-N,N-dimethylquinoline-7-carboxamide dihydrochloride]	> 1000	39	4.52
CN[C@H]1CCN([C@H](c2ccc3nnc(-c4ccc5cccc(OC(C)C)c5n4)n3c2)C(F)(F)F)C1 [Example 36, (S)—N-methyl-1-((R)-2,2,2-trifluoro-1-(3-(8-isopropoxyquinolin-2-yl)-[1,2,4]triazolo[4,3-a]pyridin-6-yl)ethyl)pyrrolidin-3-amine dihydrochloride]	32	2	0.18
CCc1cccc2ccc(-c3nnc4ccc([C@@H](N5CC[C@H](N)C5)C(F)(F)F)cn34)nc12 [Example 37, (S)-1-((R)-1-(3-(8-ethylquinolin-2-yl)-[1,2,4]triazolo[4,3-a]pyridin-6-yl)-2,2,2-trifluoroethyl)pyrrolidin-3-amine dihydrochloride]	22	0.8	0.11
CCNC(=O)c1ccc2ccc(-c3nnc4ccc([C@@H](N5CC[C@H](N)C5)C(F)(F)F)cn34)nc2c1 [Example 38, 2-(6-((R)-1-((S)-3-aminopyrrolidin-1-yl)-2,2,2-trifluoroethyl)-[1,2,4]triazolo[4,3-a]pyridin-3-yl)-N-ethylquinoline-7-carboxamide dihydrochloride]	56	0.5	0.23

Other lines, results leading:

IC50 [1] [nM]	IC50 (recombinant rat PIM-3) [nM]	IC50 (PIM-1) [nM]	Structure (SMILES)
131	3.3	0.35	CN[C@H]1CCN(C(c2ccc3nnc(-c4ccc5cccc(OCC6CC6)c5n4)n3c2)C(F)(F)F)C1 (stereo partly drawn) [Example 20, (3S)-1-(1-(3-(8-(Cyclopropylmethoxy)quinolin-2-yl)-[1,2,4]triazolo[4,3-a]pyridin-6-yl)-2,2,2-trifluoroethyl)-N-methylpyrrolidin-3-amine dihydrochloride]
427	46	1.14	NC[C@H]1CCN(C(c2ccc3nnc(-c4ccc5cccc(OCC6CC6)c5n4)n3c2)C(F)(F)F)C1 (stereo partly drawn) [Example 21, ((3R)-1-(1-(3-(8-(cyclopropylmethoxy)quinolin-2-yl)-[1,2,4]triazolo[4,3-a]pyridin-6-yl)-2,2,2-trifluoroethyl)pyrrolidin-3-yl)methanamine dihydrochloride]
935	76	2.01	NC[C@@H]1CCN(C(c2ccc3nnc(-c4ccc5cccc(OCC6CC6)c5n4)n3c2)C(F)(F)F)C1 (stereo partly drawn) [Example 24, ((3S)-1-(1-(3-(8-(cyclopropylmethoxy)quinolin-2-yl)-[1,2,4]triazolo[4,3-a]pyridin-6-yl)-2,2,2-trifluoroethyl)pyrrolidin-3-yl)methanamine dihydrochloride]
86	5.1	0.8	FC(F)(F)C(c1ccc2nnc(-c3ccc4cccc(OCC5CC5)c4n3)n2c1)N1C[C@H]2C[C@@H]1CN2 (stereo partly drawn) [Example 25, 2-(6-(1-((1R,4R)-2,5-diazabicyclo[2.2.1]heptan-2-yl)-2,2,2-trifluoroethyl)-[1,2,4]triazolo[4,3-a]pyridin-3-yl)-8-(cyclopropylmethoxy)quinoline dihydrochloride]
796	> 100	2.12	N[C@@H]1[C@H]2CN(C(c3ccc4nnc(-c5ccc6cccc(OCC7CC7)c6n5)n4c3)C(F)(F)F)C[C@@H]12 (stereo partly drawn) [Example 26, (1R,5S,6S)-3-(1-(3-(8-(cyclopropylmethoxy)quinolin-2-yl)-[1,2,4]triazolo[4,3-a]pyridin-6-yl)-2,2,2-trifluoroethyl)-3-azabicyclo[3.1.0]hexanesan-6-amine dihydrochloride]
334	25	0.8	CC1(N)CCN(C(c2ccc3nnc(-c4ccc5cccc(OCC6CC6)c5n4)n3c2)C(F)(F)F)C1 (stereo not drawn) [Example 27, 1-(1-(3-(8-(cyclopropylmethoxy)quinolin-2-yl)-[1,2,4]triazolo[4,3-a]pyridin-6-yl)-2,2,2-trifluoroethyl)-3-methylpyrrolidin-3-amine dihydrochloride]
> 1000	8.2	1.08	CC1(N)CCN(C(c2ccc3nnc(-c4ccc5cccc(O)c5n4)n3c2)C(F)(F)F)C1 (stereo not drawn) [Example 28, 2-(6-(1-(3-amino-3-methylpyrrolidin-1-yl)-2,2,2-trifluoroethyl)-[1,2,4]triazolo[4,3-a]pyridin-3-yl)quinolin-8-ol dihydrochloride]
23	0.4	0.08	CC(C)Oc1cccc2ccc(-c3nnc4ccc([C@@H](N5CC[C@H](N)C5)C(F)(F)F)cn34)nc12 [Example 31, (S)-1-((R)-2,2,2-trifluoro-1-(3-(8-isopropoxyquinolin-2-yl)-[1,2,4]triazolo[4,3-a]pyridin-6-yl)ethyl)pyrrolidin-3-amine dihydrochloride]
266	10	0.53	CC(C)N[C@H]1CCN(C(c2ccc3nnc(-c4ccc5cccc(OCC6CC6)c5n4)n3c2)C(F)(F)F)C1 (stereo partly drawn) [Example 32, (3S)-1-(1-(3-(8-(cyclopropylmethoxy)quinolin-2-yl)-[1,2,4]triazolo[4,3-a]pyridin-6-yl)-2,2,2-trifluoroethyl)-N-isopropylpyrrolidin-3-amine dihydrochloride]
